According to PubChem BioAssay (NCI):
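Test compounds were applied to cells in 96-well plates for 48 hours at 5 doses. TGI: total growth inhibition.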

What was measured:
Test in all cases: inhibition of tumour cell growth, NCI panel, 48 h
[1] = system: 786-0 renal
[2] = system: A498 renal
[3] = system: A549 NSCLC
[4] = system: ACHN renal
[5] = system: BT-549 breast
[6] = system: CAKI-1 renal
[7] = system: CCRF-CEM leukemia
[8] = system: COLO 205 colon
[9] = system: EKVX NSCLC
[10] = system: HCC-2998 colon
[11] = system: HCT-116 colon
[12] = system: HCT-15 colon
[13] = system: HOP-62 NSCLC
[14] = system: HOP-92 NSCLC
[15] = system: IGROV1 ovarian
[16] = system: K-562 leukemia
[17] = system: KM12 colon
[18] = system: LOX IMVI melanoma
[19] = system: M14 melanoma
[20] = system: MCF7 breast
[21] = system: MDA-MB-231 breast
[22] = system: MDA-MB-435
[23] = system: MDA-N
[24] = system: MOLT-4 leukemia
[25] = system: NCI-H226 lung
[26] = system: NCI-H23 lung
[27] = system: NCI-H460 lung
[28] = system: NCI-H522 lung
[29] = system: NCI/ADR-RES ovarian
[30] = system: OVCAR-3 ovarian
[31] = system: OVCAR-4 ovarian
[32] = system: OVCAR-5 ovarian
[33] = system: PC-3 prostate
[34] = system: RPMI-8226 leukemia
[35] = system: RXF 393 renal
[36] = system: SF-268 CNS
[37] = system: SF-295 CNS
[38] = system: SF-539 CNS
[39] = system: SK-MEL-2 melanoma
[40] = system: SK-MEL-28 melanoma
[41] = system: SK-MEL-5 melanoma
[42] = system: SK-OV-3 ovarian
[43] = system: SN12C renal
[44] = system: SNB-19 CNS
[45] = system: SNB-75 CNS
[46] = system: SW-620 colon
[47] = system: T-47D breast
[48] = system: TK-10 renal
[49] = system: UACC-257 melanoma
[50] = system: UO-31 renal
[51] = system: DU-145 prostate
[52] = system: MALME-3M melanoma
[53] = system: U251 CNS
[54] = system: UACC-62 melanoma

Work on `COC(=O)c1cc(-c2ccc(-c3ccc(O)cc3)cc2)cc(-c2ccc(-c3ccc(O)cc3)cc2)c1` yielded a TGI [1] of 18.9 µM, a TGI [2] of 34.7 µM and a TGI [3] of 20.9 µM. It also gave a TGI [4] of 27.3 µM, a TGI [5] of 26.6 µM and a TGI [6] of 29.5 µM. The TGI [7] was 31.2 µM, the TGI [8] was 31 µM and the TGI [9] was 25.2 µM. For the same compound, the TGI [10] was 33 µM, the TGI [11] was 17.9 µM and the TGI [12] was 20.8 µM. For the same compound, the TGI [13] was 27.7 µM, the TGI [14] was 20.9 µM and the TGI [15] was 21.1 µM. For the same compound, the TGI [16] was 17.6 µM, the TGI [17] was 6.82 µM and the TGI [18] was 18.4 µM. The TGI [19] was 30.5 µM, the TGI [20] was 25.9 µM and the TGI [21] was 71.3 µM. It also gave a TGI [22] of 24.9 µM, a TGI [23] of 23 µM and a TGI [24] of 22.1 µM. The TGI [25] was 32.6 µM, the TGI [26] was 21 µM and the TGI [27] was 35 µM. It also gave a TGI [28] of 8.66 µM, a TGI [29] of 30.1 µM and a TGI [30] of 25.6 µM. The TGI [31] was 35.9 µM, the TGI [32] was 29.1 µM and the TGI [33] was 31 µM. It also gave a TGI [34] of 27.5 µM, a TGI [35] of 20.9 µM and a TGI [36] of 17.8 µM. It also gave a TGI [37] of 20.2 µM, a TGI [38] of 19.8 µM and a TGI [39] of 33.7 µM. It also gave a TGI [40] of 25.7 µM, a TGI [41] of 30.7 µM and a TGI [42] of 29.6 µM. The TGI [43] was 27 µM, the TGI [44] was 32.8 µM and the TGI [45] was 27.8 µM. It also gave a TGI [46] of 21.9 µM, a TGI [47] of 33.8 µM and a TGI [48] of 26.7 µM. It also gave a TGI [49] of 33.3 µM and a TGI [50] of 23.6 µM.

`C=CCOC(=O)CCCCCCCCCCCCCCCOC(=O)c1c(CCC[C@@H](C)O[Si](C)(C)C(C)(C)C)nc(=O)n2c1CC[C@H]2CC1(CC/C=C\[C@H](CC)O[Si](C(C)C)(C(C)C)C(C)C)OCCO1` was tested, and the TGI [1] was 77.2 µM, the TGI [2] was > 100 µM and the TGI [3] was > 100 µM. For the same compound, the TGI [4] was > 100 µM, the TGI [5] was > 100 µM and the TGI [6] was > 100 µM. The TGI [7] was > 100 µM, the TGI [8] was > 100 µM and the TGI [51] was > 100 µM. For the same compound, the TGI [9] was > 100 µM, the TGI [10] was > 100 µM and the TGI [11] was > 100 µM. The TGI [12] was > 100 µM, the TGI [13] was > 100 µM and the TGI [14] was 41.9 µM. The TGI [17] was > 100 µM, the TGI [19] was > 100 µM and the TGI [52] was > 100 µM. The TGI [20] was > 100 µM, the TGI [21] was 54.3 µM and the TGI [22] was > 100 µM. The TGI [23] was > 100 µM, the TGI [25] was > 100 µM and the TGI [26] was > 100 µM. The TGI [27] was > 100 µM, the TGI [28] was > 100 µM and the TGI [29] was > 100 µM. The TGI [30] was > 100 µM, the TGI [31] was > 100 µM and the TGI [32] was > 100 µM. For the same compound, the TGI [33] was > 100 µM, the TGI [34] was > 100 µM and the TGI [36] was > 100 µM. The TGI [37] was > 100 µM, the TGI [38] was > 100 µM and the TGI [39] was > 100 µM. The TGI [40] was > 100 µM, the TGI [41] was 46.8 µM and the TGI [42] was > 100 µM. The TGI [43] was > 100 µM, the TGI [44] was > 100 µM and the TGI [45] was > 100 µM. For the same compound, the TGI [47] was > 100 µM, the TGI [48] was > 100 µM and the TGI [53] was 31.8 µM. For the same compound, the TGI [49] was > 100 µM, the TGI [54] was > 100 µM and the TGI [50] was 61.3 µM.
